Data: publication PMC10783034, “Pharmacokinetic and pharmacodynamic evaluation of the atypical tetracyclines chelocardin and amidochelocardin in murine infection models” (Microbiology Spectrum, 2023)
Values after ≈ are worked out from the molar mass of the structure shown.

Columns and labels:
E. coli ATCC 25922 = test: Neutropenic thigh infection model in CD-1 mice; assay type: in vivo; settings: for bacterial burden in the thigh relative to stasis (pre-treatment group): 50 mg/kg IV QD; for tolerability: doses up to 50 mg/kg IV in the neutropenic thigh infection model
Experimental: (§1) The inoculum for K. pneumoniae ATCC 43816 was prepared freshly as described previously to yield 1 × 10^4 cfu/mL ([56]). The inoculum of the E. coli ATCC 25922 was diluted from a frozen stock to 1.4 × 10^6 cfu/ml. N = 6 animals per group were used for both tested strains. N = 4 mice were used in the pre-treatment group in the neutropenic thigh infection model with E. coli ATCC 25922. Mice were rendered neutropenic by administration of 150 mg/kg and 100 mg/kg cyclophosphamide intraperitoneally on days −4 and −1, respectively. On the day of infection (day 0), mice received 30 µL of the inoculum of K. pneumoniae ATCC 43816 into each lateral thigh under isoflurane anesthesia, corresponding to 6 × 10^2 cfu/mouse. In the model with E. coli, mice received 50 µL of the inoculum of E. coli into each lateral thigh under isoflurane anesthesia, corresponding to 1.4 × 10^5 cfu/mouse. Whilst still under anesthesia, mice were administered a dose of Buprenorphine (0.03 mg/kg) subcutaneously for pain relief. 24 hours after infection, mice were euthanized by slowly introducing CO2 and cardiac puncture to remove blood from the heart immediately after death. Kidneys and thighs were aseptically removed. 24 hours after infection, the clinical score of every individual animal was assessed. Clinical scoring comprises the assessment of different parameters such as spontaneous behavior, posture, appearance, and provoked behavior. Each parameter was assessed with a score of 0 to 3 (ascending severity from 0 to 3). The humane endpoint was reached when the clinical score of a single parameter was 3 or if the total clinical score was higher than 8. Whole blood was collected into Eppendorf tubes coated with 0.5 M EDTA. Organs were homogenized in 0.9% NaCl solution. Organs and blood were plated onto agar plates in duplicates in serial dilutions and incubated at 37°C for 24 hours. 25 µL per dilution of the homogenized organ was spotted onto agar plates. In addition, 1 mL of homogenized organ is streaked onto an agar plate in technical duplicates. If no single colony is observed then, this would result in 0 cfu/mL. Thus, the threshold of detection is 0 log10 cfu/g. The groups used in the different neutropenic thigh infection models are found in Tables S4 through S7. In brief, levofloxacin with 3.3 mg/kg TID IP was used as a positive control antibiotic for the K. pneumoniae model, whereas ciprofloxacin with 20 mg/kg BID IV was used for the E. coli model, respectively. The rationale for TID dosing was based on the PK/PD index of fAUC/MIC for fluoroquinolones ([57] [–] [59]). […] Moreover, CHD and CDCHD were administered at 10 mg/kg SC QID (t = 1,3,5,7 hours), 15 mg/kg SC TID (t = 1,4,7 hours), and 50 mg/kg SC QD (t = 1 hour) (Tables S5 and S6). In the E. coli neutropenic thigh infection model, CHD and CDCHD, respectively, were administered at 50 mg/kg IV QD (t = 1 hour) and 15 mg/kg IV BID (t = 1 and 6 hours) (Table S7).
(§2) For the neutropenic thigh infection model with E. coli ATCC 25922, the thighs were regarded as two independent infection sites throughout the experiment. For statistical analysis, individual thighs (left and right) were treated as separate samples although these were not completely independent values. For the neutropenic thigh infection model with K. pneumoniae ATCC 43816, the individual thighs (left and right) were treated as one sample. For the efficacy models, the non-parametric Kruskal-Wallis test was used with GraphPad Prism 9.4.1. For the ascending urinary tract infection model, an ordinary one-way ANOVA with Dunnett’s multiple comparison test was used with GraphPad Prism 9.4.1.

K. pneumoniae ATCC 43816 [1] = test: Neutropenic thigh infection model in CD-1 mice; assay type: in vivo
Experimental: as §1, §2

K. pneumoniae ATCC 43816 [2] = test: MIC determination; assay type: cell-based; settings: MHB (not cation-adjusted) medium
ESKAPE pathogens = test: MIC determination against a variety of ESKAPE pathogens; assay type: cell-based; settings: against A. baumannii, P. aeruginosa, and E. aerogenes
Experimental: The assay was conducted as described previously ([54]) with the following modifications. The MIC was tested against the K. pneumoniae strain ATCC 43816 in an MHB (not cation-adjusted) medium. CHD and CDCHD were tested in concentrations ranging from 0.078 to 10 µg/mL. Moreover, the MIC was determined for the following strains: K. pneumoniae DSM-30104, E. faecium DSM-20477, S. aureus DSM-346, P. aeruginosa DSM-11128, A. baumannii DSM-30008, E. aerogenes DSM-30053, E. coli ATCC 25922, and E. coli C175-94. All strains were grown in MHB medium, except for E. faecium, which was grown in TSB. CHD, epi-CDH, and CDCHD were tested in concentrations ranging from 0.125 to 64 µg/mL as described previously ([19]).

[3] = 24 hours after infection, CHD/CDCHD 10 mg/kg SC QD or BID, levofloxacin 3.3 mg/kg IP TID, vs vehicle
[4] = higher-dose studies: 10 mg/kg SC QID, 15 mg/kg SC TID, 50 mg/kg SC QD, levofloxacin 3.3 mg/kg IP TID

| SMILES | bacterial burden in the thigh relative to stasis (pre-treatment group) (E. coli ATCC 25922) | bacterial burden in kidney (E. coli ATCC 25922; both IV groups (15 mg/kg IV BID and 50 mg/kg IV QD)) | tolerability (E. coli ATCC 25922) | bacterial burden in the kidney (K. pneumoniae ATCC 43816 [1]; 10 mg/kg SC BID, vs vehicle control, similar to levofloxacin, not statistically significant) | bacterial burden in blood (K. pneumoniae ATCC 43816 [1]; 10 mg/kg SC QID, 15 mg/kg SC TID, 50 mg/kg SC QD (all three groups)) | bacterial burden in the thigh (K. pneumoniae ATCC 43816 [1]; 50 mg/kg SC QD) | reduction of bacterial burden in the thigh (K. pneumoniae ATCC 43816 [1]; 50 mg/kg SC QD) | bacterial burden in blood (K. pneumoniae ATCC 43816 [1]; [3]) | bacterial burden in the kidney (K. pneumoniae ATCC 43816 [1]; [4]) | MIC (K. pneumoniae ATCC 43816 [2]) [µg/mL] | activity (in words) (ESKAPE pathogens) | bacterial burden in kidney (E. coli ATCC 25922; 15 mg/kg IV BID) | bacterial burden in the thigh (E. coli ATCC 25922; 15 mg/kg IV BID) | kill in the thigh compared to the pre-treatment group (E. coli ATCC 25922; 50 mg/kg IV) [log10-unit] | reduction in the thigh compared to the vehicle (E. coli ATCC 25922; 50 mg/kg IV) [log10-unit] | bacterial burden in the thigh (K. pneumoniae ATCC 43816 [1]; 10 mg/kg SC QID, 15 mg/kg SC TID, 50 mg/kg SC QD (all three dose levels)) | bacterial burden in the kidney (K. pneumoniae ATCC 43816 [1]; 50 mg/kg SC QD) | bacterial burden in blood (K. pneumoniae ATCC 43816 [1]; 50 mg/kg SC QD, similar range as levofloxacin, statistical significance missed) |
| --- | --- | --- | --- | --- | --- | --- | --- | --- | --- | --- | --- | --- | --- | --- | --- | --- | --- | --- |
| Cc1ccc2c(C)c3c(c(O)c2c1O)C(=O)C1(O)C(=O)C(C(N)=O)=C(O)C(N)C1C3 (stereo not shown) [CDCHD, 2-carboxamido-2-deacetyl-chelocardin] | did not reduce bacterial load back to stasis | pronounced reduction of bacterial burden | well tolerated | a reduction of bacterial burden was observed in the kidney | a reduction of bacterial burden was observed | a statistically significant reduction of bacterial burden in the thigh was observed | approximately one | The same was found in blood | reduced bacterial burden in the kidney to apparent sterilization |  |  |  |  |  |  |  |  |  |
| CC(=O)C1=C(O)[C@H](N)[C@@H]2Cc3c(c(O)c4c(O)c(C)ccc4c3C)C(=O)[C@]2(O)C1=O [CHD, chelocardin] | reduction of bacterial burden to levels below stasis |  | well tolerated |  |  |  |  | The same was found in blood | no statistically significant effect was observed | 5 (≈ 12.2 µM) | inactive | moderate reduction | reduced bacterial burden in the thigh | ~1 | 5 | no effect was observed in the thigh | a slight reduction of bacterial burden | the bacterial burden was reduced |
